Like-named read-outs stand apart in the source and are kept apart here.
How the values were obtained:
[1] = biological target: neuraminidase of A/Washington/10/2008, A (H1N1) Seasonal, WT (Influenza A virus, UniProt G3LYQ1); type: biochemical; conditions: read-out: Mean IC50 ± SD
[2] = biological target: neuraminidase of A/Washington/01/2007, A (H3N2) Seasonal, WT (Influenza A virus, UniProt A7UPN3); experiment: biochemical
[3] = biological target: neuraminidase of B/Memphis/20/1996, B Seasonal, WT (Influenza B virus, UniProt C7FPS7); type: biochemical; conditions: read-out: Mean IC50 ± SD
[4] = biological target: neuraminidase of A/California/07/2009, H1N1 Pandemic, WT (Influenza A virus (A/California/07/2009(H1N1)), UniProt C7FH46); type: biochemical, 2009 pandemic H1N1 influenza virus; conditions: read-out: Mean IC50 ± SD
[5] = biological target: neuraminidase of seasonal influenza A(H1N1) H275 wildtype virus isolates (Influenza A virus, UniProt A8C8J7); type: biochemical
[6] = biological target: neuraminidase of seasonal influenza A(H3N2) virus isolates (Influenza A virus, UniProt X2GK54); type: biochemical
[7] = biological target: neuraminidase of seasonal influenza B virus isolates (Influenza B virus, UniProt U5XBU0); type: biochemical
[8] = biological target: neuraminidase of 2009 pandemic H1N1 H275 wildtype virus isolates (Influenza A virus, UniProt C3W5S3); type: biochemical, 2009 pandemic H1N1 influenza virus
[9] = biological target: neuraminidase of Pandemic H1N1 virus isolates (Influenza A virus, UniProt C7FH46); type: biochemical, 2009 pandemic H1N1 influenza virus
[10] = biological target: neuraminidase of A/England/412/2008 (H1N1), H275H/Y mix; type: biochemical, influenza A(H1N1) virus
[11] = test system: neuraminidase of seasonal influenza A(H1N1) viruses; type: biochemical, influenza A(H1N1) virus
[12] = test system: neuraminidase of B/New Jersey/02/2009; type: biochemical, influenza B virus
[13] = test system: neuraminidase of B/Okinawa/10/2009; type: biochemical, influenza B virus
[14] = read-out: IC50 Statistical Cutoff (X0.75 + 3IQR)
[15] = read-out: IC50 X0.75 (75th Percentile)

CCC(CC)[C@H](NC(C)=O)[C@@H]1[C@H](O)[C@@H](C(=O)O)C[C@H]1N=C(N)N [Peramivir, peramivir]
IC50 [1]: 0.09 nM | IC50 ([2]; read-out: Mean IC50 ± SD): 0.12 nM | IC50 [3]: 0.31 nM | IC50 [4]: 0.06 nM | IC50 ([5]; read-out: IC50 Mean (±SD)): 0.1 nM | IC50 ([5]; read-out: IC50 Median): 0.1 nM | IC50 ([5]; read-out: IC50 Range): 0.05 to 0.17 nM | IC50 [5, 14]: 0.28 nM | IC50 [5, 15]: 0.13 nM | IC50 ([6]; read-out: IC50 Mean (±SD)): 0.17 ± 0.1 nM | IC50 ([6]; read-out: IC50 Median): 0.14 nM | IC50 ([6]; read-out: IC50 Range): 0.05 to 0.94 nM | IC50 [6, 14]: 0.4 nM | IC50 [6, 15]: 0.19 nM | susceptibility in NI assay [7]: sensitive | IC50 ([7]; read-out: IC50 Mean (±SD)): 0.56 nM | IC50 ([7]; read-out: IC50 Median): 0.56 nM | IC50 ([7]; read-out: IC50 Range): 0.24 to 1.1 nM | IC50 [7, 14]: 1.37 nM | IC50 [7, 15]: 0.68 nM | IC50 ([8]; read-out: IC50 Mean (±SD)): 0.08 ± 0.04 nM | IC50 ([8]; read-out: IC50 Median): 0.07 nM | IC50 ([8]; read-out: IC50 Range): 0.03 to 0.35 nM | IC50 [8, 14]: 0.22 nM | IC50 [8, 15]: 0.1 nM | susceptibility in NI assay [9]: sensitive | IC50 [10]: 0.51 nM

CC(=O)N[C@H]1[C@H]([C@H](O)[C@H](O)CO)OC(C(=O)O)=C[C@@H]1N=C(N)N [Zanamivir, zanamivir]
IC50 [2]: 0.47 nM | IC50 [4]: 0.26 nM | susceptibility in NI assay [6]: sensitive | susceptibility in NI assay [9]: sensitive | susceptibility in NI assay [11]: sensitive | susceptibility in NI assay [12]: reduced susceptibility | susceptibility in NI assay [13]: reduced susceptibility
